Results on 2 molecules are retold here after ChEMBL document CHEMBL5370593, “Discovery and In Vitro Characterization of SPL028: Deuterated N,N-Dimethyltryptamine” (ACS Med Chem Lett, 2023).

What is called pIC50 is the IC50 on a negative log10 scale, so that one unit is a factor of ten. Broadly, the inhibition is the percentage by which the read-out fell short of the control. What is called pKi is −log10 of the Ki, conventionally taken in molar units. For orientation: fraction unbound means free concentration divided by total concentration.

pIC50, pKi: −log10 of the molar value.

Series [1] deals with T1, 5-hydroxytryptamine receptor 6 (Homo sapiens, UniProt P50406). As to the kind of experiment: Displacement of [3H] LSD from human recombinant 5-HT6 receptor expressed in human HeLa cells incubated for 120 mins by spectrophotometric analysis. It counts as cell-based. For orientation: Displacement assays read how much labelled ligand stays bound in the presence of the test substance.
T1 sequence (P50406 whole entry): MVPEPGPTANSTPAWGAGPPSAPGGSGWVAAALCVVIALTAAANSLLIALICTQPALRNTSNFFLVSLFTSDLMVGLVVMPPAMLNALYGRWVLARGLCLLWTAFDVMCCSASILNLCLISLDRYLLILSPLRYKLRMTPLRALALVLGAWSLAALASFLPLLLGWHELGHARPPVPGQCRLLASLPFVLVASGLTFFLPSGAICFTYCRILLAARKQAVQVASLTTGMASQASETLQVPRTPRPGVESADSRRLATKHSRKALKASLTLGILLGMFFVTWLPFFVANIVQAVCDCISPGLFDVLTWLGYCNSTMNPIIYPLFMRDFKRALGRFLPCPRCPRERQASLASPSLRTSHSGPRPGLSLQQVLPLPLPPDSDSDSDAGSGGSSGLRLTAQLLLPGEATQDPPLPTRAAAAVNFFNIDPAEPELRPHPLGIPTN

In series [2] the target is Neuronal acetylcholine receptor; alpha3/beta4 (Homo sapiens, UniProt P30926+P32297). As to the kind of experiment: Displacement of [125I]-epibatidine from human recombinant nAChR alpha3beta4 receptor expressed in CHO-K1 cells incubated for 60 mins by spectrophotometric analysis. The series is classed as cell-based.
Chain of Neuronal acetylcholine receptor; alpha3/beta4 (P30926 whole entry): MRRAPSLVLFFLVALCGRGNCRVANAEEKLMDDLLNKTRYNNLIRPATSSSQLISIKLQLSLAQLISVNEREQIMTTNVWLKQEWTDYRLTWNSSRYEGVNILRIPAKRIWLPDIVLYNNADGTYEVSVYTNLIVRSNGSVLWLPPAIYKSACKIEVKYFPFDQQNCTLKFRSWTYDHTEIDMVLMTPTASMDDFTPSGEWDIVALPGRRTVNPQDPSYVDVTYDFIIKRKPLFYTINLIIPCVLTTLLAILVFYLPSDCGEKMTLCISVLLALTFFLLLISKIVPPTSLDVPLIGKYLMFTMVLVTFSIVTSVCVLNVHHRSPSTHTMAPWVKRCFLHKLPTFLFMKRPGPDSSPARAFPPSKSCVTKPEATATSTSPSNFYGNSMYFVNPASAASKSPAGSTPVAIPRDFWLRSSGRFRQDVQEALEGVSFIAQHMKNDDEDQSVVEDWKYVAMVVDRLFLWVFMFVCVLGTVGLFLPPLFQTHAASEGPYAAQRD
Chain of Neuronal acetylcholine receptor; alpha3/beta4 (P32297 whole entry): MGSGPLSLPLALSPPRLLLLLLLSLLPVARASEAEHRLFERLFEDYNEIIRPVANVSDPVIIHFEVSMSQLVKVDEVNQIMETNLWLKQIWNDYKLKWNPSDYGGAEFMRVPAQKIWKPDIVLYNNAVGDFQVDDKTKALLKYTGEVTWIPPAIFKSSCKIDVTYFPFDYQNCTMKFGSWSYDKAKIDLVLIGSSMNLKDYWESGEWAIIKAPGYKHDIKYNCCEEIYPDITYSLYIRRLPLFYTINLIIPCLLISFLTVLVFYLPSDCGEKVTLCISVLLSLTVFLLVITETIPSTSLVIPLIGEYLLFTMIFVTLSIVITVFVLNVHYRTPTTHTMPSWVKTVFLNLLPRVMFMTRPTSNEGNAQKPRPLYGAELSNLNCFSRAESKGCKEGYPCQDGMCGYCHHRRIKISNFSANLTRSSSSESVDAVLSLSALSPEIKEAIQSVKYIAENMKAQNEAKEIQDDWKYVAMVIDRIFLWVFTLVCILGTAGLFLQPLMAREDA
The next series concerns the target MAO-A (Homo sapiens, UniProt P21397). Nature of the series: Inhibition of human recombinant MAO-A expressed in insect cells assessed as inhibition of 4-hydroxyquinoline formation at 10 uM using kynuramine as substrate incubated for 75 mins by spectrophotometric analysis relative to control. More on the design: species or system Insect cell. Particulars: probe kynuramine.

The target in series [3] is T2, Alpha-1D adrenergic receptor (Homo sapiens, UniProt P25100).
T2 sequence (P25100 whole entry): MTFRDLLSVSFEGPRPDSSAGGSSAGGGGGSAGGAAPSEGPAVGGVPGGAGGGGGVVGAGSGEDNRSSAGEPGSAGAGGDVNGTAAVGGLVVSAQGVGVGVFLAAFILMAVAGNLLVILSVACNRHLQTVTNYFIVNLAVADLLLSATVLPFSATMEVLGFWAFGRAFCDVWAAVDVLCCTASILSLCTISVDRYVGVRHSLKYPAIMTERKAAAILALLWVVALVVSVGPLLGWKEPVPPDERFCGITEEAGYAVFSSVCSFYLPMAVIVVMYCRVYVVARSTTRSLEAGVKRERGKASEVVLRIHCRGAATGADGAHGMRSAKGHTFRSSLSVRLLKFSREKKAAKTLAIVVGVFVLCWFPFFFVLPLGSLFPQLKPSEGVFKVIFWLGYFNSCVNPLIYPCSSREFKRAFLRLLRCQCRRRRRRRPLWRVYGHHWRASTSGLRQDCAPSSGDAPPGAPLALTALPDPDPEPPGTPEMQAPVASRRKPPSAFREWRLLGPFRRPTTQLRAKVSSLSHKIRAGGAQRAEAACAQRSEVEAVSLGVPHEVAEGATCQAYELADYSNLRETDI
As to the kind of experiment: Displacement of [3H] prazosin from human recombinant adrenergic alpha-1d receptor expressed in HEK293 cells incubated for 60 mins by spectrophotometric analysis. It counts as cell-based.

Series [4] is described as follows: Metabolic stability in human hepatocytes assessed as intrinsic clearance measured per million cells incubated upto 60 mins by LC-MS/MS analysis. It counts as ADME, cell-based, Hepatocyte. Particulars: read-out: CLH.
Series [5] can be described thus: Displacement of [3H] idazoxan from imidazoline receptor 2 (unknown origin) assessed as inhibition constant by spectrophotometric analysis. Details: species or system Homo sapiens.
The nature of series [6]: Plasma protein binding in human assessed as unbound fraction by rapid equilibrium dialysis analysis. It counts as ADME, cell-free. For orientation: Equilibrium dialysis compares concentrations on both sides of a semipermeable membrane.
The target of series [7] is 5-hydroxytryptamine receptor 7 (Homo sapiens, UniProt P34969). Nature of the series: Displacement of [3H] LSD from human recombinant 5-HT7 receptor expressed in CHO-K1 cells assessed as inhibition constant incubated for 120 mins by spectrophotometric analysis. The series is classed as cell-based.
Chain of 5-hydroxytryptamine receptor 7 (P34969 whole entry): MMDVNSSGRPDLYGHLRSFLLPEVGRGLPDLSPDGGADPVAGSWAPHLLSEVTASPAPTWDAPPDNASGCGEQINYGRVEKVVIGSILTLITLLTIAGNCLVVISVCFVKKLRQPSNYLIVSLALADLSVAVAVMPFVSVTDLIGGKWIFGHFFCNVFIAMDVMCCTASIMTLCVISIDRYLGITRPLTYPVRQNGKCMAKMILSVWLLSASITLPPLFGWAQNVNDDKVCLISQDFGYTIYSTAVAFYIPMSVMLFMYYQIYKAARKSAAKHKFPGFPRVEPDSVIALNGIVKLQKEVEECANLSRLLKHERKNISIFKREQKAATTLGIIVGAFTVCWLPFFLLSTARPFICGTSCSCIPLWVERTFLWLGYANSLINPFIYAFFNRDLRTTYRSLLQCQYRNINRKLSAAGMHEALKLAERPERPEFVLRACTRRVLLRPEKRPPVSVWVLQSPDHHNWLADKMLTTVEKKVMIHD
The target of series [8] is T1, 5-hydroxytryptamine receptor 6. Nature of the series: Displacement of [3H] LSD from human recombinant 5-HT6 receptor expressed in human HeLa cells assessed as inhibition constant incubated for 120 mins by spectrophotometric analysis. It counts as cell-based.
The target in series [9] is T3, Alpha-1B adrenergic receptor (Homo sapiens, UniProt P35368).
T3 sequence (P35368 whole entry): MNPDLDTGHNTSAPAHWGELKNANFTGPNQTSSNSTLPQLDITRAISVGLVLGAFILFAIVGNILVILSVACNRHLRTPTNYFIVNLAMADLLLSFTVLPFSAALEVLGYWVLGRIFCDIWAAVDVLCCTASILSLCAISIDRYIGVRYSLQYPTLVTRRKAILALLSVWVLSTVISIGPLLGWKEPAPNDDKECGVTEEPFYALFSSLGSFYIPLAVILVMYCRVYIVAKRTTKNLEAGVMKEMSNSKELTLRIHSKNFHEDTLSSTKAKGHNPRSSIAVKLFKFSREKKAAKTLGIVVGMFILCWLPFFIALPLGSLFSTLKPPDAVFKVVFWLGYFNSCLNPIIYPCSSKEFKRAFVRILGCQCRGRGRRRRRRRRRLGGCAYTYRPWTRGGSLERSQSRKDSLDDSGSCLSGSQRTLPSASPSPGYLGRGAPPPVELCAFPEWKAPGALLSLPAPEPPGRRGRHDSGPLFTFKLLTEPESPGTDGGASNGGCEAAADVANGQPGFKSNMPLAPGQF
As to the kind of experiment: Displacement of [3H] prazosin from human recombinant adrenergic alpha-1b receptor expressed in […] cells assessed as inhibition constant incubated for 60 mins by spectrophotometric analysis. The series is classed as cell-based.

The target in series [10] is Amine oxidase [flavin-containing] A (Homo sapiens, UniProt P21397). As to the kind of experiment: Inhibition of human recombinant MAO-A expressed in insect cells assessed as inhibition of 4-hydroxyquinoline formation using kynuramine as substrate incubated for 75 mins by spectrophotometric analysis. More on the design: species or system Insect cell.
Chain of Amine oxidase [flavin-containing] A (P21397 whole entry): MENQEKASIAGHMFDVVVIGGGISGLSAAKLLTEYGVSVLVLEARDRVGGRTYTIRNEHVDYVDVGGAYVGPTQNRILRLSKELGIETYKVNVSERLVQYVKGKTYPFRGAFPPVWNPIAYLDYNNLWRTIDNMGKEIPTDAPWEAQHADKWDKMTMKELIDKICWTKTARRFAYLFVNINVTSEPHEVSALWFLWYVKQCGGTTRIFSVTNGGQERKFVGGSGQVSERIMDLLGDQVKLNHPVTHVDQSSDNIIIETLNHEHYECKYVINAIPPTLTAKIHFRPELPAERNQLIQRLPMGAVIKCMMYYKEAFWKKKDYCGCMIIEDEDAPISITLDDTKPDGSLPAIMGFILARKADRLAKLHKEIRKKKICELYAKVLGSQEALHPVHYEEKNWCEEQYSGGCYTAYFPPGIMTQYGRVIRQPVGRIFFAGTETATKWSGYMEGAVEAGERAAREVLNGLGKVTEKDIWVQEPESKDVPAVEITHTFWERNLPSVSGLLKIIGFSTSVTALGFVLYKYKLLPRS
Series [11] concerns the target 5-hydroxytryptamine receptor 2A (Homo sapiens, UniProt P28223). Nature of the series: Displacement of [3H] ketanserin from human recombinant 5-HT2A receptor expressed in CHO-K1 cells incubated for 60 mins by spectrophotometric analysis.
In series [12] the target is T4, Alpha-2A adrenergic receptor (Homo sapiens, UniProt P08913).
T4 sequence (P08913 whole entry): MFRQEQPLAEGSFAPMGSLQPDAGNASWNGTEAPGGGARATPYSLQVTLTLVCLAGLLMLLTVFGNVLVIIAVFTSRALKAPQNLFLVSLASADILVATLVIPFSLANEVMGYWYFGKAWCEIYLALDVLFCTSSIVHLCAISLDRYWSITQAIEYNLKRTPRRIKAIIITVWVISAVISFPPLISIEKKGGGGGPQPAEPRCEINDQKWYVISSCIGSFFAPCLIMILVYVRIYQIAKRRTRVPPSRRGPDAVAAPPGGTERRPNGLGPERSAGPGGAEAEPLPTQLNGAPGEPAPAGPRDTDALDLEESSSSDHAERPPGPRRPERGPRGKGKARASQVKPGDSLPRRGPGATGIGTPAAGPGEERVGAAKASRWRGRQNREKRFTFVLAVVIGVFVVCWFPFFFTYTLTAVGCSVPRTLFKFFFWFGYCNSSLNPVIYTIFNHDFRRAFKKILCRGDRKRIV
As to the kind of experiment: Displacement of [3H]-rauwolscine from human recombinant adrenergic alpha-2A receptor expressed in CHO-K1 cells incubated for 60 mins by spectrophotometric analysis. The series is classed as cell-based.

Chain of MAO-A (P21397 whole entry): as the sequence (P21397 whole entry) above
Chain of 5-hydroxytryptamine receptor 2A (P28223 whole entry): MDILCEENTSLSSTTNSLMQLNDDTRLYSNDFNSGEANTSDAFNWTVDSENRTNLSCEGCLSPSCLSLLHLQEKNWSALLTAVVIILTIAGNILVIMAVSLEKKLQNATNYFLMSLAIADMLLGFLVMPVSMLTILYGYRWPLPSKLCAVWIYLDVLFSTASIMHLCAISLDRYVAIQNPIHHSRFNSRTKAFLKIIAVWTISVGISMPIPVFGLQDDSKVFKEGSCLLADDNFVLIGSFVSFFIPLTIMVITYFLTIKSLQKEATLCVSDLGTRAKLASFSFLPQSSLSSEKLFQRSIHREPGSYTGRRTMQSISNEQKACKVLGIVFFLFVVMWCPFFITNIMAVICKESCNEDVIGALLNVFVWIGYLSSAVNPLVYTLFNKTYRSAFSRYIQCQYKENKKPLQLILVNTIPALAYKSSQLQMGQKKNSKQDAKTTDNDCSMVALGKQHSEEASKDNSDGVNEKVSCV

For `CN(C)CCc1c[nH]c2ccccc12.O=C(O)/C=C/C(=O)O`, the pIC50 in [1] is 5.92; in series [2], 5.38; in series [3], 5.51; in series [10], 5.93; in series [11] it was 6.82; in series [12] it was 5.65. Further, the inhibition at 1.25 h, 10 µM at MAO-A stood at 85.3%. Besides, in [4], the hepatocyte CLint is 16.6 µL/min/1e6 cells. For the same molecule, the pKi was 5.89 in [5], 7.15 in [7], 6.25 in [8] and 6.59 in [9]. Further, the fraction unbound in series [6] turned out to be 0.68.

As for `O=C(O)/C=C/C(=O)O.[2H]C([2H])(Cc1c[nH]c2ccccc12)N(C)C`, the pIC50 in [1] is 5.97; in [2], 5.36; in series [3] it was 5.49; in series [10], 5.82; in [11], 6.66; in series [12], 5.52. Further, the inhibition at 1.25 h, 10 µM on MAO-A was 84.3%. Also, the hepatocyte CLint in [4] turned out to be 7.3 µL/min/1e6 cells. In addition, the pKi in [5] is 5.76; in series [7], 7.30; in series [8], 6.30; in [9], 6.43. The fraction unbound in series [6] turned out to be 0.7.
